Test results: patent publication US11096940B2, “Treatment of hepatocellular carcinoma characterized by hepatitis B virus infection” (Celgene Corporation, priority 2017, dated 2021)
Entries after “also recorded” stand apart in the source; their conditions may differ.

Key:
Type in all cases: in vivo, human
subjects with HCC = test: Phase 1/2 clinical study Part B, dose expansion: efficacy (RECIST response, OS, PFS) in HCC subjects
Source text: Part B, the preliminary efficacy-seeking phase, was an open-label, dose-expansion study, which involved subjects with HCC.
(§1) Subjects received continuous daily dosing of Compound 1 in 28-day cycles (FIG. 1). Therapy was discontinued if there was evidence of disease progression, but subjects continued to receive Compound 1 as long as the investigator considered that the subjects derived benefit from treatment. Therapy was discontinued if there was unacceptable toxicity or if the subject decided to withdraw from the study. Subjects were contacted 28 days after the last dose of study drug to assess the status of adverse events (AEs) and to determine whether any new events or death had occurred. In addition to those subjects who had died on study, approximately 28 subjects were consented for follow-up every 2 months (±1 week) after completing the treatment phase in order to determine their date of death and complete an overall survival analysis.
Accordingly to the original protocol of Part B, 25 HCC patients started treatment of Compound 1 at 45 mg/day. After the protocol Amendment 9, 28 new HCC subjects in an additional cohort were started at 30 mg/day. The appropriateness of the 30 mg/day dose was supported by the PK and PD data from Part A. Compound 1 was administered orally, in an uninterrupted once daily schedule with no rest period between each 28-day cycle. Subjects continued to receive Compound 1 for as long as they derived benefit from treatment as judged by the investigator.
All efficacy analyses were based on both the TP and EE Population. Subjects were evaluated for efficacy during Cycles 2, 4, 6, and every 3 months after Cycle 6. The primary efficacy variable was response rate. Efficacy endpoints for HCC matured once all enrolled subjects had withdrawn from the study.
Tumor response for HCC was based on investigator's overall evaluation with RECIST. Response rate was determined by a best overall response of either CR or PR. Disease control rate (DCR) included CR, PR, and SD.
OS was defined as the time from first dose to death. All deaths, regardless of the cause of death, were included. Subjects who had not died were censored at the last contact date when the subject was known to be alive or the clinical cut-off date, whichever was earlier.
Median of OS times were calculated using the Kaplan-Meier method and the corresponding 95% CIs were presented.

[1] = system: subjects with various hematologic or solid malignancies; test: Phase 1/2 clinical study Part A, dose escalation (MTD determination); details: oral
Method: The study was designed as a Phase 1/2 trial consisting of two parts: dose escalation (Part A) and dose expansion (Part B).
Part A was an open-label, dose-escalating study of subjects with various hematologic or solid malignancies. The primary objectives were to determine the maximum tolerated dose (MTD) and the preliminary PK of Compound 1. The MTD of Compound 1 was determined to be 45 mg/day, and the nontolerated dose (NTD) was determined to be 60 mg/day. The PK and PD data supported once daily dosing with Compound 1.

[2] = PK analysis: plasma concentration in HCC patients by HBV status; details: after oral Compound 1, first treatment cycle; FIGS. 3A, 3B
Method: The PK profiles of Compound 1 and its metabolite M1 were determined from serial blood and urine collections during the first treatment cycle. Plasma and urine Compound 1 and M1 were measured using validated chiral liquid chromatography-mass spectrometry methods. The lower limit of quantification (LLOQ) in plasma was 1.00 or 2.00 ng/mL for Compound 1 and 10.0 ng/mL for M1. The LLOQ in urine was 5.00 ng/mL for Compound 1 and 20 ng/mL for M1. […]

[3] = Phase 1/2 clinical study Part B: safety and tolerability in HCC subjects; details: subjects with HCC
Source text: The primary objectives for Part B were (a) to determine the safety and tolerability of Compound 1 when administered orally and (b) to determine the preliminary PK of Compound 1 following both single and multiple oral dosing of Compound 1.
as §1

alpha-fetoprotein (AFP) = test: Assessment of AFP in HCC patients; details: two HBV positive HCC patients with PR (FIG. 10)
Method: For the HCC subjects, baseline and change from baseline in AFP and HBV viral load (HBsAg positive subjects only) were summarized with descriptive statistics. In addition, a Wilcoxon's signed rank test was conducted to analyze change from baseline in AFP at selected scheduled visits. The p-values of such tests were provided. Change from baseline in HBV viral load was analyzed similarly. The percentage of subjects with a >50% decline from baseline in AFP was summarized for the TP.

CO[C@H]1CC[C@H](N2C(=O)CNc3ncc(-c4ccc(C(C)(C)O)nc4)nc32)CC1 [Compound 1, 7-(6-(2-hydroxypropan-2-yl)pyridin-3-yl)-1-((trans)-4-methoxycyclohexyl)-3,4-dihydropyrazino[2,3-b]pyrazin-2(1H)-one]
DCR (subjects with HCC; EE Population): 68.3%
ORR (subjects with HCC; EE Population): 7.3%
rate of tumor regression relative to pretreatment (subjects with HCC; EE Population): 56.1%
median OS (subjects with HCC; HBV infected HCC patients): 12.07 months
ORR (subjects with HCC; HBV negative subgroups): 0%
disease control rate (DCR) (subjects with HCC; HBV negative subjects): 43.9%
median OS (subjects with HCC; HBV negative subjects): 22.4 weeks
median PFS (subjects with HCC; HBV negative subjects): 14.4 weeks
target tumor shrinkage rate (subjects with HCC; HBV negative subjects): 39.0%
ORR (subjects with HCC; HBV positive subjects): 25%
disease control rate (DCR) (subjects with HCC; HBV positive subjects): 91.7%
median OS (subjects with HCC; HBV positive subjects): 52.4 weeks
median PFS (subjects with HCC; HBV positive subjects): 14.8 weeks
target tumor shrinkage rate (subjects with HCC; HBV positive subjects): 66.7%
complete response (CR) (subjects with HCC; HCC TP): No subject experienced a CR
overall response rate (ORR) (subjects with HCC; HCC TP): 5.7%
subjects with best response of SD (subjects with HCC; HCC TP): 49.1%
number of subjects with >30% regression of target tumor lesion (subjects with HCC; HCC cohort, RECIST 1.1 (FIG. 7)): Five
median OS (subjects with HCC; HCC cohort, all patients (FIG. 5A)): 6.9 months
median PFS (subjects with HCC; HCC cohort, all patients (FIG. 6A)): 16 weeks
number of subjects achieving PR (subjects with HCC; HCC cohort, all HBV positive): 3 subjects
median OS (subjects with HCC; TP): 30.0 weeks
median PFS (subjects with HCC; TP): 3.7 months
disease control rate (DCR) (subjects with HCC; all subjects (HCC TP)): 54.7%
rate of target tumor shrinkage (target lesion regression relative to pretreatment) (subjects with HCC; all subjects (HCC TP)): 45.3%
median OS (subjects with HCC; non-HBV infected HCC patients): 5.16 months
median duration of response (DOR) (subjects with HCC; the 3 subjects who reached PR): 124.0 days
median duration of SD (subjects with HCC; the 26 subjects with best response of SD): 112.0 days
radiographic response at first on-treatment restaging compared to baseline (subjects with HCC; two HBV infected HCC patients, Patient A and Patient B (FIG. 9)): regression of intrathoracic metastases; also recorded: intrahepatic tumor regression
maximum tolerated dose (MTD) [1]: 45 mg/day
nontolerated dose (NTD) [1]: 60 mg/day
plasma exposure in HBV infected HCC patients (n=12) versus non-HBV infected HCC patients (n=39) [2]: comparable to the exposure observed in non-HBV infected HCC patients
tolerability [3]: well tolerated
AFP on treatment compared to baseline (alpha-fetoprotein (AFP)): early clinically significant, marked reduction of AFP
